# Measurements as given in patent US5254574A, “New tetrazole derivatives, process for their preparation and their use” (Chemisch Pharmazeutische Forschungsgesellschaft m.b.H., priority 1991, dated 1993).
# “Also recorded” adds a separate entry of the source.
# Legend:
# [1] = cited from earlier work
# [2] = test system: angiotensin II induced increases in mean arterial blood pressure; assay: Anaesthetized normotensive rat: angiotensin II induced increases in mean arterial blood pressure after intraduodenal administration; settings: FIG. 3
# Procedure: b) anaesthetized normotensive rat: Angiotension II (1 /ug/kg i.v.) was given before as well as in 15 minutes intervals after intraduodenal administration of the drugs.
# FIG. 3 The effects of DuP 753 and Subst. 1 on angiotension II induced increases in mean arterial bloodpessure in normotensive anaesthetized rats (n=4)
# [3] = target: T1, Angiotensin II receptor (isolated rat aorta) (Rattus norvegicus, UniProt P25095); assay: Isolated rat aorta, contractile force; cumulative angiotensin II dose-response curves with and without antagonist pretreatment; settings: dose/effect curve of angiotensin II; FIG. 1, FIG. 2
# T1 construct: isolated rat aorta; from tissue; host or cells: isolated rat aorta
# T1 sequence (P25095 1-359): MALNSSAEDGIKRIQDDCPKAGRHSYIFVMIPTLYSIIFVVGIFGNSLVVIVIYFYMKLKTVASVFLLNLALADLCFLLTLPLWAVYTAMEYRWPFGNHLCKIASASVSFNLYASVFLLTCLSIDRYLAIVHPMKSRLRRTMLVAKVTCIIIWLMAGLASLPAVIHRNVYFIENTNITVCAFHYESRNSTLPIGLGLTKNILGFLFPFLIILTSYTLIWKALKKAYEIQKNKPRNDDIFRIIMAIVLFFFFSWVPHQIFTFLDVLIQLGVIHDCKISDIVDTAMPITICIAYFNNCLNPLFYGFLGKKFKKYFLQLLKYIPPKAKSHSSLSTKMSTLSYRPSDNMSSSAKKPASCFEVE
# Procedure: 1 or DuP 753 (10-8, 10^-7, 10^-6 mol/1, each) and results were expressed as percentage of maximum contraction obtained by addition of 10^-5 mol/1 noradrenaline.
# EP50 -values and pA2 -values were determined arithmetically.
# FIG. 1 Isolated rat aorta contractile force of subst. 1
# FIG. 2 Isolated rat aorta contractile force of DuP 753
# angiotensin II receptor = settings: Wong et al., 1990, JPET 255, 211-217; cited from earlier work
Compound,metabolic conversion in vivo ([1]; literature),duration of action in vivo ([2]; DuP 753 compared with the substances according to the invention),conversion into active non-competitive metabolite in vivo ([2]; concluded from duration of action),mode of antagonism in vitro [3],"contribution of metabolite to duration of action of DuP 753 ([1]; in vivo, Wong et al., 1990)",mode of angiotensin II receptor antagonism (angiotensin II receptor)
"CCCCc1nc(Cl)c(CO)n1Cc1ccc(-c2ccccc2-c2nn[nH]n2)cc1 [DuP 753, 2-n-butyl-4-chloro-5-hydroxymethyl-1-((2'-(1-H-tetrazol-5-yl)biphenyl-4-yl)methyl)imidazole]","converted into a non-competitive metabolite, EXP 3174",longer duration of action,conversion into an active non-competitive metabolite is detectable,acts competitively in experiments in vitro,,
"CCCCc1nc(Cl)c(C(=O)O)n1Cc1ccc(-c2ccccc2-c2nnn[nH]2)cc1 [EXP 3174, 2-n-butyl-4-chloro-1-((2'-(1H-tetrazol-5-yl)biphenyl-4-yl)methyl)-imidazole-5-carboxylic acid]",,,,,responsible for the long duration of action; also recorded: largely responsible for the duration of action of DuP 753,non-competitive irreversible angiotensin II receptor antagonist
